Entries after “also recorded” stand apart in the source; their conditions may differ.
Legend:
AR = biological target: T1, AR (Rattus norvegicus, UniProt P15207); test: AR transactivation, ARE-LUC in COS cells; format: cell-based
T1 construct: expressed in transfected cells; host or cells: COS cells
T1 sequence (P15207 1-902): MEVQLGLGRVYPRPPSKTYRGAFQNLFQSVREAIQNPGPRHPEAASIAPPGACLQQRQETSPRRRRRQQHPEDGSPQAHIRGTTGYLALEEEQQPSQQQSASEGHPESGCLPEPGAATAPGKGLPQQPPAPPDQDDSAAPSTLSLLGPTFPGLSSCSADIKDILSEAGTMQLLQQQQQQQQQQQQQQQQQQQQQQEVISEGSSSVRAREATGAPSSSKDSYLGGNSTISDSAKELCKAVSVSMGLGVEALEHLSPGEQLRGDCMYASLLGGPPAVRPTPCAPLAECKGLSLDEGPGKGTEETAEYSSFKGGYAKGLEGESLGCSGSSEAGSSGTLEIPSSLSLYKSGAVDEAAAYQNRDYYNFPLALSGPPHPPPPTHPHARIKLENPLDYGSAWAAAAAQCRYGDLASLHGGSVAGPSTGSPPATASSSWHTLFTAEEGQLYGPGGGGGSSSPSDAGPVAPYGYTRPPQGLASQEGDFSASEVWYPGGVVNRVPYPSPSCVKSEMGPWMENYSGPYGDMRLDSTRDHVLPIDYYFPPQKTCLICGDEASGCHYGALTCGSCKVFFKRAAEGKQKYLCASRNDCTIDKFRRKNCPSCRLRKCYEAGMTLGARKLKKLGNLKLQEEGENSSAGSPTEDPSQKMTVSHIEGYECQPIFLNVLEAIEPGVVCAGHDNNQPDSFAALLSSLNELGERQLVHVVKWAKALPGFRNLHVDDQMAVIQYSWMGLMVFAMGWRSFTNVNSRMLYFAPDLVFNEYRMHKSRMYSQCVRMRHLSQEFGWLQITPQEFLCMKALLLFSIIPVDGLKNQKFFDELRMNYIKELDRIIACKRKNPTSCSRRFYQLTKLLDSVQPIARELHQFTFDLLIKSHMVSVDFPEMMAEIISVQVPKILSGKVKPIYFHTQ
Experimental: FIG. 3: Effect of the indicated compounds on AR transactivation. COS cells plated in DME without phenol red+10% csFBS at 90,000 cells per well of a 24 well plate were transfected with 0.25 μg ARE-LUC, 0.02 μg CMV-LUC (Renilla) and 12.5 ng of AR by lipofectamine. Twenty four hours after transfection, the cells were treated as indicated in the figure, harvested 48 hrs after transfection and were assayed for firefly and renilla luciferase.
Also 25 ng of ER-α (FIGS. 1, 5, and 9), 50 ng of ER-β (FIGS. 2, 6 and 10) or 12.5 ng of AR (FIG. 3) were introduced by lipofectamine. All the receptors were cloned from rat tissue into the PCR3.1 vector backbone. […] Cells were harvested 48 hrs after transfection, and assayed for firefly and Renilla luciferase activity.

[1] = tested on: TRAP positive multinucleated osteoclasts; test: TRAP positive multinucleated osteoclasts from bone marrow cells; format: cell-based, rat; details: RANKL and GMCSF, 12 days
Experimental: FIG. 7: Effect of the indicated compounds on TRAP positive multinucleated osteoclasts. Bone marrow cells from rat femur was cultured in Alpha MEM+10% csFBS without phenol red in the presence or absence of 30 ng/ml RANKL and 10 ng/ml GMCSF. The cells were treated for 12 days and were stained for tartarate resistant acid phosphatase activity (TRAP) and multinucleated osteoclasts were counted.
Bone marrow cells isolated from rat femur were cultured in Alpha MEM without phenol red+10% sterile FBS without phenol red in the presence or absence of […] RANKL and 10 ng/ml GMCSF. The cells were treated for 12 days were stained for tartarate resistant acid phosphatase activity (TRAP) positive multinucleated osteoclasts and were counted.

[2] = Metabolic stability in human liver microsomes; details: 1 μM substrate, 0.5 mg/mL microsomes
Experimental: Each substrate or reference control was dissolved at a concentration of 10 mM in DMSO, from which a 5 μM spiking solution was prepared by dilution in water. Substrates (1 μM) were incubated in the presence of human liver microsomes (Xenotech LLC, Kansas City Mo.) at 0.5 mg/mL fortified with an NADPH regenerating system at 37° C. and pH 7.4. The NADPH regenerating system consisted of glucose-6-phosphate dehydrogenase (1 units/mL) in 0.05M K2HPO4. Duplicate incubations were performed in 96-well polypropylene cluster tubes in a final volume of 250 μL per reaction. At 0, 2, 4, 6, 10, 30, and 60 minutes a stop solution (300 μL acetonitrile) was added to aliquots of the reaction mixture. Precipitated protein was removed by centrifugation (3000 rpm for 15 minutes) and the supernatants were transferred to clean 96-well plates for analysis.
The samples were injected onto a Phenomenex Luna hexylphenyl 50×2 mm i.d. 5 uM, column fitted with a guard column. An isocratic mobile phase consisting of 50% acetonitrile and 0.1% formic acid in water was used at a flow rate of 0.3 mL/min. The protonated molecular ion (M+H)^+ of the analyte was monitored by MDS/Sciex API 4000QTrap triple quadrupole mass spectrometer using electrospray positive mode ionization with a temperature of 500° C. and a spray voltage of 4000V. Total analysis time was 1.5 min per sample.
Metabolic stability was defined as the amount of substrate metabolized by the incubation with hepatic microsomes and expressed as a percentage of the initial amount of substrate (% remaining) based on peak area. Initial substrate concentration for each analyte was 1 μM. The initial peak area of each substrate was determined at time zero and metabolic stability was assessed based on the change in analyte peak area from time 0 min to a single fixed timepoint for each sample (2-60 min, representative timepoints are shown in Table 2 below).

[3] = tested on: pS2 (gene encoding the trefoil peptides) in MCF-7 cells; test: pS2 gene expression in MCF-7 cells (realtime RT-PCR); format: cell-based
Experimental: MCF-7 cells were plated at 500,000 cells per well of a 6 well plate. RNA was isolated and the message levels of pS2 (gene encoding the trefoil peptides) measured and normalized to 18S ribosomal RNA by realtime polymerase chain reaction (rtPCR).
FIG. 11: Agonistic activity of the indicated compounds in MCF-7 cells. MCF-7 cells were plated at 500,000 cells per well of a 6 well plate. RNA was isolated and the message levels of pS2 gene measured and normalized to 18S ribosomal RNA by realtime rtPCR.
MCF-7 cells were plated at 500,000 cells per well of a 6 well plate. The cells were serum starved for 3 days and then were treated as above for 16 hrs. RNA was isolated and gene expression levels assessed by realtime RT-PCR, following normalization to 18S ribosomal RNA.

| SMILES | AR LUC expression, compound alone (AR) | inhibition of DHT-induced AR activation (AR; with DHT) | osteoclast differentiation / osteoclast activity [1] | % Remaining 0 min [2] | % Remaining 10 min [2] | % Remaining 30 min [2] | % Remaining 60 min [2] | pS2 expression ([3]; 16 hrs) | inhibition of estrogen-induced upregulation of pS2 gene expression ([3]; with estrogen) | osteoclast differentiation / osteoclast activity ([1]; hydrochloride) |
| --- | --- | --- | --- | --- | --- | --- | --- | --- | --- | --- |
| O=C(c1ccccc1)N(c1ccc(O)cc1)c1ccc(OCCN2CCCCC2)cc1 [Compound 4a, N-(4-hydroxyphenyl)-N-[4-(2-piperidin-1-ylethoxy)-phenyl]-benzamide] | no effect on LUC expression | nor did it inhibit DHT-induced AR activation | minimally but dose-dependently suppressed the osteoclast differentiation | 100% | 105% | 95% | 74% | only minimally did so; also recorded: partial agonist of ER action in MCF-7 cells | inhibited estrogen-induced upregulation of pS2 gene expression | – |
| Cl.O=C(c1ccc(F)cc1)N(c1ccc(O)cc1)c1ccc(OCCN2CCCCC2)cc1 [Compound 4h, N-(4-hydroxyphenyl)-N-[4-(2-piperidin-1-ylethoxy)-phenyl]-4-fluroro-benzamide hydrochloride] | – | – | – | 100% | 99% | 86% | 70% | – | – | minimally but dose-dependently suppressed the osteoclast differentiation; also recorded: highly suppressive of osteoclast activity |

Reference: US8158828B2, “Nuclear receptor binding agents” (priority 2005, dated 2012)
